Our source for the IC50 values is patent US10821115B2, “Compounds that inhibit Mcl-1 protein” (priority 2017, dated 2020).

Read-outs that look alike come from different tables or passages of the source.

This experiment deals with recombinant human Mcl-1 (residues 171-327) / Bim interaction (Homo sapiens (Human), UniProt Q07820). Kind of experiment: biochemical. It is filed as binding.
Setting [1] is: 0.1 nM Mcl-1(171-327), 0.05 nM biotin-Bim (51-76), read-out: Mcl-1 HTRF IC50.
[2] abbreviates: TR-FRET, Mcl-1(171-327) / biotin-Bim (51-76), read-out: Mcl-1 HTRF IC50.

recombinant human Mcl-1 (residues 171-327) / Bim interaction, sequence (Q07820 171-327): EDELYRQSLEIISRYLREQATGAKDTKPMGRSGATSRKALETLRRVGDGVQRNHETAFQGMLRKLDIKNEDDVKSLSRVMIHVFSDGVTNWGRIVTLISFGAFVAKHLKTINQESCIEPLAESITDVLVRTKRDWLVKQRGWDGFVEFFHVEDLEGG

In general, IC50 refers to the concentration that inhibits the measured activity by half. With `C[C@@H]1[C@@H](C)C/C=C/[C@]2(CN(C)CCO2)[C@@H]2CC[C@H]2CN2C[C@@]3(CCCc4cc(Cl)ccc43)COc3ccc(cc32)C(=O)NS1(=O)=O` [Example 130], the IC50 under setting [1] is 0.92 nM.
For the compound `C[C@@H]1[C@@H](C)C/C=C/[C@@](O)(CS(=O)(=O)N(C)C)[C@@H]2CC[C@H]2CN2C[C@@]3(CCCc4cc(Cl)ccc43)COc3ccc(cc32)C(=O)NS1(=O)=O` (single isomer, unassigned) [Example 100020], the IC50 (read-out: Mcl-1 HTRF IC50) is 0.032 nM.
Take `C[C@@H]1[C@@H](C)C/C=C/[C@]2(CN3CCOC[C@@H]3CO2)[C@@H]2CC[C@H]2CN2C[C@@]3(CCCc4cc(Cl)ccc43)COc3ccc(cc32)C(=O)NS1(=O)=O` [Example 131]: the IC50 under setting [1] was 0.249 nM.
Still for that read-out and setting: as for `C[C@@H]1[C@@H](C)C/C=C/[C@@]2(CN(C)CCO2)[C@@H]2CC[C@H]2CN2C[C@@]3(CCCc4cc(Cl)ccc43)COc3ccc(cc32)C(=O)NS1(=O)=O` [Example 124, (1S,3′R,6′R,7′S,8′E, 11′S,12′R)-6-chloro-4″,11′,12′-trimethyl-3,4-dihydro-2H,15′H-dispiro[naphthalene-1,22′-[20]oxa[13]thia[1,14]diazatetracyclo[14.7.2.0-3,6˜.0˜19,24˜]pentacosa[8,16,18,24]tetraene-7′,2″-[1,4]oxazinan]-15′-one 13′,13′-dioxide], the figure is 0.646 nM.
Take `CO[C@@]1(CCN(C)C2CCCC2)/C=C/C[C@H](C)[C@@H](C)S(=O)(=O)NC(=O)c2ccc3c(c2)N(C[C@@H]2CC[C@H]21)C[C@@]1(CCCc2cc(Cl)ccc21)CO3` [Example 100418, (1S,3′R,6′R,7′S,8′E,11′S,12′R)-6-chloro-7′-(2-(cyclopentyl(methyl)amino)ethyl)-7′-methoxy-11′,12′-dimethyl-3,4-dihydro-2H,15′H-spiro[naphthalene-1,22′-[20]oxa[13]thia[1,14]diazatetracyclo [14.7.2.0~3,6~.0~19,24~]pentacosa[8,16,18,24]tetraen]-15′-one 13′,13′-dioxide]: the IC50 under setting [2] came out at 0.098 nM.
Still for that read-out and setting: as for `C[C@H]1CC/C=C/[C@@](C)(O)[C@@H]2CC[C@H]2CN2C[C@@]3(CCCc4cc(Cl)ccc43)COc3ccc(cc32)C(=O)NS1(=O)=O` (single isomer, unassigned) [Example 100032], the figure is 0.442 nM; as for `N#C[C@]1(O)CCCCCS(=O)(=O)NC(=O)c2ccc3c(c2)N(C[C@@H]2CC[C@H]21)C[C@@]1(CCCc2cc(Cl)ccc21)CO3` [Example 100027, (1S,3′R,6′R,7′S)-6-chloro-7′-hydroxy-15′-oxo-3,4-dihydro-2H-spiro[naphthalene-1,22′-[20]oxa[13]thia[1,14]diazatetracyclo [14.7.2.0~3,6~.0~19,24~]pentacosa[16,18,24]triene]-7′-carbonitrile 13′,13′-dioxide], 7.34 nM.
Same read-out and setting: as for `CC#C[C@@]1(O)CCCCCS(=O)(=O)NC(=O)c2ccc3c(c2)N(C[C@@H]2CC[C@H]21)C[C@@]1(CCCc2cc(Cl)ccc21)CO3` [Example 100026, (1S,3′R,6′R,7′R)-6-chloro-7′-hydroxy-7′-(1-propyn-1-yl)-3,4-dihydro-2H,15′H-spiro[naphthalene-1,22′-[20]oxa[13]thia[1,14]diazatetracyclo [14.7.2.0~3,6~.0~19,24~]pentacosa[16,18,24]trien]-15′-one 13′,13′-dioxide], the figure is 2.15 nM; as for `C[C@H]1CC/C=C/[C@](C)(O)[C@@H]2CC[C@H]2CN2C[C@@]3(CCCc4cc(Cl)ccc43)COc3ccc(cc32)C(=O)NS1(=O)=O` (single isomer, unassigned) [Example 100028], 1.26 nM.
On the same count and under the same terms, as for `CO[C@]1(CO)/C=C/C[C@H](C)[C@@H](C)S(=O)(=O)NC(=O)c2ccc3c(c2)N(C[C@@H]2CC[C@H]21)C[C@@]1(CCCc2cc(Cl)ccc21)CO3` [Example 100312, (1S,3′R,6′R,7′R,8′E,11′S,12′R)-6-chloro-7′-(hydroxymethyl)-7′-methoxy-11′,12′-dimethyl-3,4-dihydro-2H,15′H-spiro[naphthalene-1,22′-[20]oxa[13]thia[1,14]diazatetracyclo [14.7.2.0~3,6~.0~19,24~]pentacosa[8,16,18,24]tetraen]-15′-one 13′,13′-dioxide], the figure is 0.088 nM.
In the case of `CCO[C@]1(CN2CCN(C(C)C)[C@H](C)C2)CCC[C@H](C)[C@@H](CCOC)S(=O)(=O)NC(=O)c2ccc3c(c2)N(C[C@@H]2CC[C@H]21)C[C@@]1(CCCc2cc(Cl)ccc21)CO3` [Example 519, (1S,3′R,6′R,7′R,11′S,12′R)-6-chloro-7′-ethoxy-12′-(2-methoxyethyl)-11′-methyl-7′-(((3R)-3-methyl-4-(2-propanyl)-1-piperazinyl)methyl)-3,4-dihydro-2H, 15′H-spiro[naphthalene-1,22′-[20]oxa[13]thia[1,14]diazatetracyclo[14.7.2.0-3,6˜.0˜19,24˜]pentacosa[16,18,24]trien]-15′-one 13′,13′-dioxide], the IC50 under setting [1] is 0.157 nM.
`O=C1NS(=O)(=O)CCCCC[C@@](O)(CO)[C@@H]2CC[C@H]2CN2C[C@@]3(CCCc4cc(Cl)ccc43)COc3ccc1cc32` [Example 100022, (1S,3′R,6′R,7′S)-6-chloro-7′-hydroxy-7′-(hydroxymethyl)-3,4-dihydro-2H,15′H-spiro[naphthalene-1,22′-[20]oxa[13]thia[1,14]diazatetracyclo [14.7.2.0~3,6~.0~19,24~]pentacosa[16,18,24]trien]-15′-one 13′,13′-dioxide]: under setting [2], the IC50 is 0.861 nM.
On the same count and under the same terms, with `O=C1NS(=O)(=O)CCCCC[C@](O)(CO)[C@@H]2CC[C@H]2CN2C[C@@]3(CCCc4cc(Cl)ccc43)COc3ccc1cc32` [Example 100021, (1S,3′R,6′R,7′R)-6-chloro-7′-hydroxy-7′-(hydroxymethyl)-3,4-dihydro-2H,15′H-spiro[naphthalene-1,22′-[20]oxa[13]thia[1,14]diazatetracyclo [14.7.2.0~3,6~.0~19,24~]pentacosa[16,18,24]trien]-15′-one 13′,13′-dioxide] the figure was 1.05 nM; with `C[C@]1(O)CCCCCS(=O)(=O)NC(=O)c2ccc3c(c2)N(C[C@@H]2CC[C@H]21)C[C@@]1(CCCc2cc(Cl)ccc21)CO3` [Example 100023, (1S,3′R,6′R,7′S)-6-chloro-7′-hydroxy-7′-methyl-3,4-dihydro-2H,15′H-spiro[naphthalene-1,22′-[20]oxa[13]thia[1,14]diazatetracyclo [14.7.2.0~3,6~.0~19,24~]pentacosa[16,18,24]trien]-15′-one 13′,13′-dioxide], 3.94 nM.
Take `C[C@@H]1[C@@H](C)C/C=C/[C@](O)(CS(=O)(=O)N(C)C)[C@@H]2CC[C@H]2CN2C[C@@]3(CCCc4cc(Cl)ccc43)COc3ccc(cc32)C(=O)NS1(=O)=O` (single isomer, unassigned) [Example 100293]: the IC50 (Mcl-1 HTRF IC50) was determined as 0.522 nM.
